Data from US20170035894A1, “DRUG DELIVERY CONJUGATES FOR TREATING RESISTANT CANCER AND FOR USE IN COMBINATION THERAPY” (ENDOCYTE, INC., priority 2014, published 2017).
Structures can show the parent of a compound that is named as a salt.

Key:
ST502 tumors = test: TNBC PDX tumor model; format: in vivo, Balb/c nu/nu mice; conditions: Eribulin mesylate 1 mg/kg once a week for two weeks
Protocol: (§1) Female Balb/c nu/nu mice were fed ad libitum with folate-deficient chow (Harlan diet #TD01013) for the duration of the experiment. Primary human Endometrial model ST040, TNBC models 5T502 and ST738 and Ovarian model ST024 fragments (2-4 mm in diameter) were inoculated subcutaneously at the right flank of each mouse. Mice were randomized into 6 experimental groups of 5 or 3 mice each and test articles were injected through the lateral tail vein under sterile conditions in a volume of 200 μL of phosphate-buffered saline (PBS).
(§2) Growth of each s.c. tumor was followed by measuring the tumor two times per week until a volume of 1200 mm^3 was reached. Tumors were measured in two perpendicular directions using Vernier calipers, and their volumes were calculated as 0.5×L×W^2, where L=measurement of longest axis in mm and W=measurement of axis perpendicular to L in mm.

ST738 tumors = test: TNBC PDX tumor model; format: in vivo, Balb/c nu/nu mice; conditions: Eribulin mesylate 1 mg/kg once a week for two weeks
Protocol: as §1, §2

ST040 tumors = test: Endometrial PDX tumor model; format: in vivo, Balb/c nu/nu mice; conditions: Paclitaxel 15 mg/kg once a week for two weeks
Protocol: as §1, §2

ST024 tumors = test: Ovarian PDX tumor model; format: in vivo, Balb/c nu/nu mice; conditions: Paclitaxel 15 mg/kg once a week for two weeks
Protocol: as §1, §2

[1] = Cytotoxicity of unconjugated drugs to cells in culture; format: cell-based; conditions: cells in culture; unconjugated drug; read-out: typical IC50, cytotoxic to cells in culture
KB tumors = test: Inhibition of tumor growth, s.c. KB tumors; format: in vivo, nu/nu mice; conditions: for CR (%) / Cures (%) / PR (%): TIW, 2 weeks
Protocol: METHOD. Inhibition of Tumor Growth in Mice. Four to seven week-old mice (Balb/c or nu/nu strains) were purchased from Harlan Sprague Dawley, Inc. (Indianapolis, Ind.). Normal rodent chow contains a high concentration of folic acid (6 mg/kg chow); accordingly, test animals were maintained on a folate-free diet (Harlan diet #TD00434) for about 1 week before tumor implantation to achieve serum folate concentrations close to the range of normal human serum, and during the Method. For tumor cell inoculation, 1×10^6 M109 cells (a syngeneic lung carcinoma) in Balb/c strain, or 1×10^6 KB cells in nu/nu strain, in 100 μL were injected in the subcutis of the dorsal medial area (right axilla). Tumors were measured in two perpendicular directions every 2-3 days using a caliper, and their volumes were calculated as 0.5×L×W^2, where L=measurement of longest axis in mm and W=measurement of axis perpendicular to L in mm.
Dosing solutions were prepared fresh each day in PBS and administered through the lateral tail vein of the mice.
Tumor implantation. KB tumor cells were grown in folate-deficient RPMI 1640 with 5% FBS at 37° C. in a 5% CO2 humidified atmosphere. KB (1×10^6 cells per animal) tumor cells were inoculated subcutaneously […] post start of the folate deficient diet. Mice were dosed after the tumors reached between 100-150 mm3.
Preparation of dosing drug solutions. Dosing solutions were prepared when dosing began by weighing appropriate amounts of each compound, reconstituting in PBS, pH 7.4, sterile filtering the drug solution through a 0.22 µm PVDF syringe filter, and freezing aliquots for each day of dosing at −20° C.
(§3) Evaluation. Tumor size was monitored and body weight measured 3 times/week. Attention was given to gross animal morphology and behavior. Euthanasia was performed if the mice lost >20% of weight or when the tumors reached a size of 1500 mm3. Euthanasia was also performed at the researcher's discretion if mice lost a lot of weight in a short duration or when mice were approaching moribund conditions. Blood samples were collected by cardiac puncture from all viable animals from selected cohorts. Heart, lungs, liver, spleen, kidney, intestines, bone, brain and muscle were obtained immediately after euthanasia. The tissues were removed and stored in 10% neutral-buffered formalin.
For example, a 50% decrease in tumor volume from the initial measurement represents a partial response.
For example, a decrease in tumor volume where the measurements in two perpendicular directions are each about 2 mm or less represents a complete response.

[2] = Toxicity as measured by weight loss / gross animal toxicity in tumor-bearing mice; conditions: for Toxicity Avg. Weight Loss / Toxicity Deaths (%): TIW, 2 weeks
Protocol: METHOD. Toxicity as Measured by Weight Loss. The percentage weight change of the test animals was determined on selected days post-tumor inoculation (PTI), and during dosing. The results were graphed.
as §3

cells in culture = test: Cytotoxicity of unconjugated drugs to cells in culture; format: cell-based; conditions: unconjugated drug; read-out: typical IC50, cytotoxic to cells in culture
[3] = system: KB-CR2000 (cisplatin resistant) tumors; test: Cisplatin-resistant KB-CR2000 tumor model; format: in vivo, mice; conditions: cisplatin 3 mg/kg twice per week, 2 weeks
Text: METHOD. Human cisplatin-resistant cell line. […] In addition, regrowth of the tumor was only observed in 1/5 test animals.

LU1147 NSCLC tumors = test: Huprime NSCLC PDX tumor model; format: in vivo, Balb/c nu/nu mice; conditions: Docetaxel 15 mg/kg (one dose)
Protocol: (§4) Female Balb/c nu/nu mice were fed ad libitum with folate-deficient chow (Harlan diet #TD01013) for the duration of the experiment. Primary human NSCLC models LU1147 or LU2505 fragments (2-4 mm in diameter) were inoculated subcutaneously at the right flank of each mouse. Mice were randomized into experimental groups of 7 mice and test articles were injected through the lateral tail vein under sterile conditions in a volume of 200 μL of phosphate-buffered saline (PBS). These studies were performed at Crown Bioscience (Beijing) Inc., Ground Floor, Light Muller Building, Changping Sector of Zhongguancun Scientific Park, No. 21 Huoju Road, Changping District, Beijing, P.R. China.
as §2

LU2505 NSCLC tumors = test: Huprime NSCLC PDX tumor model; format: in vivo, Balb/c nu/nu mice; conditions: Docetaxel 15 mg/kg (one dose)
Protocol: as §4, §2

[4] = 1.0 μmol/kg (2 doses, only 2 doses due to toxicity)
[5] = KB tumors, 1.0 μmol/kg (2 doses)
[6] = KB tumors, 0.1 μmol/kg (4 doses)
[7] = KB tumors, 0.2 μmol/kg (3 doses)
[8] = KB tumors, 0.5 μmol/kg (1 dose)
[9] = Carboplatin 30 mg/kg BIW×2 combined with paclitaxel 10 mg/kg BIW×2

C=C1C[C@@H]2CC[C@@]34C[C@H]5O[C@H]6[C@@H](O3)[C@H]3O[C@H](CC[C@@H]3O[C@H]6[C@H]5O4)CC(=O)C[C@@H]3[C@@H](OC)[C@@H](C[C@H](O)CN)O[C@H]3C[C@H]3O[C@@H](CC[C@@H]1O2)C[C@@H](C)C3=C [Eribulin mesylate, eribulin mesylate, reference compound]
animal exhibiting PR (ST502 tumors): 1 animal | animal exhibiting stable disease (ST502 tumors): 1 animal | PR's (ST738 tumors): 2 | animals exhibiting stable disease (ST738 tumors): 5 animals

CC(=O)O[C@H]1C(=O)[C@@]2(C)[C@H]([C@H](OC(=O)c3ccccc3)[C@]3(O)C[C@H](OC(=O)[C@H](O)[C@@H](NC(=O)c4ccccc4)c4ccccc4)C(C)=C1C3(C)C)[C@]1(OC(C)=O)CO[C@@H]1C[C@@H]2O [Paclitaxel, paclitaxel, reference compound]
animals exhibiting stable disease (ST040 tumors): zero | anti-tumor activity (ST024 tumors): no anti-tumor activity

CCCC(=O)OCN(C(=O)[C@@H](NC(=O)[C@H]1CCCCN1C)C(C)CC)[C@H](C[C@@H](OC(C)=O)c1nc(C(=O)N[C@@H](Cc2ccc(O)cc2)C[C@H](C)C(=O)NN)cs1)C(C)C (stereo partly shown) [TubB-H, reference compound]
IC50 [1]: ~1 nM | CR (%) (KB tumors; 0.5 μmol/kg): 0% | Cures (%) (KB tumors; 0.5 μmol/kg): 0% | PR (%) (KB tumors; 0.5 μmol/kg): 0% | CR (%) (KB tumors; 0.75 μmol/kg): 0% | Cures (%) (KB tumors; 0.75 μmol/kg): 0% | PR (%) (KB tumors; 0.75 μmol/kg): 0% | CR (%) (KB tumors; [4]): 0% | Cures (%) (KB tumors; [4]): 0% | PR (%) (KB tumors; [4]): 0% | Toxicity Avg. Weight Loss ([2]; KB tumors, 0.5 μmol/kg): <5.5% | Toxicity Deaths (%) ([2]; KB tumors, 0.5 μmol/kg): 0% | Toxicity Avg. Weight Loss ([2]; KB tumors, 0.75 μmol/kg): >10% | Toxicity Deaths (%) ([2]; KB tumors, 0.75 μmol/kg): 20% | Toxicity Avg. Weight Loss [2, 5]: >15% | Toxicity Deaths (%) [2, 5]: 20%

CCCC(=O)OCN(C(=O)[C@@H](NC(=O)[C@H]1CCCCN1C)[C@@H](C)CC)[C@H](C[C@@H](OC(C)=O)c1nc(C(=O)N[C@@H](Cc2ccc(O)cc2)C[C@H](C)C(=O)O)cs1)C(C)C [Tubulysin B, tubulysin B, reference compound]
IC50 (cells in culture): ~1 nM | CR (%) (KB tumors; 0.1 μmol/kg (4 doses)): 0% | Cures (%) (KB tumors; 0.1 μmol/kg (4 doses)): 0% | PR (%) (KB tumors; 0.1 μmol/kg (4 doses)): 0% | CR (%) (KB tumors; 0.2 μmol/kg (3 doses)): 0% | Cures (%) (KB tumors; 0.2 μmol/kg (3 doses)): 0% | PR (%) (KB tumors; 0.2 μmol/kg (3 doses)): 0% | CR (%) (KB tumors; 0.5 μmol/kg (1 dose)): 0% | Cures (%) (KB tumors; 0.5 μmol/kg (1 dose)): 0% | PR (%) (KB tumors; 0.5 μmol/kg (1 dose)): 0% | Toxicity Avg. Weight Loss [2, 6]: >20% | Toxicity Deaths (%) [2, 6]: 100% | Toxicity Avg. Weight Loss [2, 7]: >18% | Toxicity Deaths (%) [2, 7]: 100% | Toxicity Avg. Weight Loss [2, 8]: >15% | Toxicity Deaths (%) [2, 8]: 100%

N.N.O=C([O-])C1(C(=O)[O-])CCC1.[Pt+2] [carboplatin, reference compound]
CR's (KB tumors; [9]): 80% | cures (KB tumors; [9]): 20% | toxicity ([2]; KB tumors, carboplatin/paclitaxel study, carboplatin administered alone): Mild toxicity | toxicity ([2]; P-1635 KB tumors, carboplatin alone 50 mg/kg TIW): Mild toxicity

N.N.[Cl][Pt][Cl] [cisplatin, reference compound]
partial response (PR) [3]: did not produce even a single partial response

CC(=O)O[C@@]12CO[C@@H]1C[C@H](O)[C@@]1(C)C(=O)[C@H](O)C3=C(C)[C@@H](OC(=O)[C@H](O)[C@@H](NC(=O)OC(C)(C)C)c4ccccc4)C[C@@](O)([C@@H](OC(=O)c4ccccc4)[C@H]21)C3(C)C [docetaxel]
animals exhibiting stable disease (LU1147 NSCLC tumors): 2 animals | CR's (LU2505 NSCLC tumors): 2 | PR's (LU2505 NSCLC tumors): 2 | cures (LU2505 NSCLC tumors): 2 | toxicity ([2]; KB tumors, docetaxel alone 7 mg/kg BIW×3): Mild toxicity

COc1cccc2c1C(=O)c1c(O)c3c(c(O)c1C2=O)C[C@@](O)(C(=O)CO)C[C@@H]3O[C@H]1C[C@H](N)[C@H](O)[C@H](C)O1 [doxorubicin, reference compound]
toxicity ([2]; KB-DR150 tumors, doxorubicin alone, DOXIL 5 mg/kg BIW×2): Mild toxicity
